The NIST ThermoML archive (doi:10.1021/je030136n)
Numbers after ± are expanded uncertainties.

What was measured:
[1] = Liquid, Pulse-echo method
[2] = xn = mol fraction of the nth substance listed; conditions: Liquid, Pulse-echo method, x1 = 1

CCCCCCC [heptane]
[1]
Conditions	speed of sound [m/s]
293.1 K, 111450 kPa	1674.3 ± 1.3
293.15 K, 100 kPa	1151.7 ± 1.1
293.16 K, 121580 kPa	1707.1 ± 1.4
293.18 K, 30400 kPa	1341.5 ± 1.2
293.19 K, 45590 kPa	1416.6 ± 1.2
293.2 K, 15200 kPa	1256.3 ± 1.1
293.2 K, 60790 kPa	1484.5 ± 1.2
293.2 K, 75990 kPa	1546.5 ± 1.3
293.2 K, 91190 kPa	1603.7 ± 1.3
293.2 K, 101320 kPa	1639.7 ± 1.3
298.11 K, 75990 kPa	1531.6 ± 1.3
298.13 K, 111450 kPa	1660.5 ± 1.5
298.14 K, 121580 kPa	1692.4 ± 1.4
298.15 K, 91190 kPa	1589.4 ± 1.3
298.16 K, 100 kPa	1129.9 ± 1.1
298.16 K, 101320 kPa	1625.7 ± 1.3
298.16 K, 111450 kPa	1660.4 ± 1.5
298.18 K, 45590 kPa	1400.1 ± 1.2
298.19 K, 60790 kPa	1468.7 ± 1.2
303.06 K, 100 kPa	1108.9 ± 1.1
303.07 K, 45590 kPa	1384.4 ± 1.2
303.1 K, 101320 kPa	1612.6 ± 1.3
303.1 K, 121580 kPa	1681.2 ± 1.3
303.13 K, 30400 kPa	1307 ± 1.2
303.15 K, 111450 kPa	1647.6 ± 1.3
303.17 K, 15200 kPa	1218.6 ± 1.1
303.17 K, 75990 kPa	1517.2 ± 1.3
303.18 K, 60790 kPa	1453.7 ± 1.2
303.18 K, 91190 kPa	1575.7 ± 1.3
308.07 K, 30400 kPa	1290.3 ± 1.2
308.07 K, 45590 kPa	1368.7 ± 1.2
308.08 K, 100 kPa	1087.4 ± 1.1
308.08 K, 15200 kPa	1200.4 ± 1.1
308.11 K, 91190 kPa	1562.4 ± 1.3
308.12 K, 60790 kPa	1439 ± 1.2
308.12 K, 75990 kPa	1503.2 ± 1.3
308.17 K, 121580 kPa	1668.6 ± 1.4
308.21 K, 111450 kPa	1634.6 ± 1.3
308.24 K, 101320 kPa	1599.1 ± 1.3
313.1 K, 100 kPa	1066.1 ± 1.1
313.1 K, 15200 kPa	1182 ± 1.1
313.1 K, 75990 kPa	1489.2 ± 1.2
313.12 K, 30400 kPa	1273.3 ± 1.1
313.12 K, 45590 kPa	1353 ± 1.2
313.12 K, 60790 kPa	1424.3 ± 1.2
313.13 K, 91190 kPa	1549 ± 1.3
313.13 K, 121580 kPa	1656.4 ± 1.4
313.2 K, 111450 kPa	1622 ± 1.3
313.21 K, 101320 kPa	1586.2 ± 1.3
318.09 K, 75990 kPa	1475.5 ± 1.3
318.15 K, 91190 kPa	1535.7 ± 1.3
318.17 K, 45590 kPa	1337.4 ± 1.2
318.17 K, 60790 kPa	1409.6 ± 1.2
318.17 K, 121580 kPa	1644.3 ± 1.4
318.18 K, 100 kPa	1044.5 ± 1.1
318.18 K, 15200 kPa	1163.4 ± 1.1
318.18 K, 30400 kPa	1256.5 ± 1.2
318.18 K, 101320 kPa	1573.6 ± 1.3
318.18 K, 111450 kPa	1609.8 ± 1.3

CCCO [propan-1-ol]
[1]
Conditions	speed of sound [m/s]
293.12 K, 15200 kPa	1308.5 ± 1
293.16 K, 121580 kPa	1699.1 ± 1.2
293.17 K, 111450 kPa	1669.9 ± 1.2
293.18 K, 101320 kPa	1639.5 ± 1.2
293.19 K, 100 kPa	1223 ± 1
293.2 K, 75990 kPa	1557.2 ± 1.1
293.2 K, 91190 kPa	1607.6 ± 1.2
293.21 K, 45590 kPa	1444.2 ± 1.1
293.21 K, 60790 kPa	1502.8 ± 1.1
293.22 K, 30400 kPa	1379.9 ± 1.1
298.11 K, 15200 kPa	1292.9 ± 1
298.12 K, 100 kPa	1205.9 ± 1
298.14 K, 45590 kPa	1430.7 ± 1.1
298.14 K, 60790 kPa	1490 ± 1.1
298.14 K, 75990 kPa	1544.9 ± 1.1
298.14 K, 91190 kPa	1595.8 ± 1.2
298.14 K, 101320 kPa	1628 ± 1.2
298.14 K, 111450 kPa	1658.8 ± 1.2
298.14 K, 121580 kPa	1688.2 ± 1.2
298.15 K, 30400 kPa	1365.6 ± 1.1
303.12 K, 100 kPa	1188.7 ± 1
303.13 K, 45590 kPa	1417 ± 1.1
303.14 K, 15200 kPa	1277.3 ± 1
303.15 K, 75990 kPa	1532.5 ± 1.1
303.17 K, 91190 kPa	1584 ± 1.2
303.17 K, 101320 kPa	1616.5 ± 1.2
303.18 K, 121580 kPa	1677.4 ± 1.2
303.19 K, 111450 kPa	1647.5 ± 1.2
303.2 K, 60790 kPa	1477 ± 1.1
303.24 K, 30400 kPa	1350.9 ± 1.1
308.11 K, 121580 kPa	1667 ± 1.2
308.12 K, 75990 kPa	1520.4 ± 1.1
308.13 K, 30400 kPa	1336.8 ± 1.1
308.13 K, 45590 kPa	1403.7 ± 1.1
308.13 K, 60790 kPa	1464.5 ± 1.1
308.16 K, 111450 kPa	1636.7 ± 1.2
308.19 K, 101320 kPa	1605.1 ± 1.2
308.2 K, 100 kPa	1171.4 ± 1
308.2 K, 15200 kPa	1263.6 ± 1
308.2 K, 91190 kPa	1572.4 ± 1.2
313.15 K, 91190 kPa	1561.1 ± 1.2
313.15 K, 101320 kPa	1594.1 ± 1.2
313.16 K, 15200 kPa	1248.7 ± 1
313.16 K, 30400 kPa	1322.6 ± 1.1
313.16 K, 45590 kPa	1390.4 ± 1.1
313.16 K, 75990 kPa	1508.5 ± 1.1
313.17 K, 100 kPa	1154.5 ± 1
313.17 K, 60790 kPa	1451.8 ± 1.1
313.17 K, 121580 kPa	1656.2 ± 1.2
313.22 K, 111450 kPa	1625.8 ± 1.2
318.11 K, 101320 kPa	1583.3 ± 1.2
318.12 K, 60790 kPa	1439.6 ± 1.1
318.12 K, 75990 kPa	1496.8 ± 1.1
318.12 K, 91190 kPa	1549.9 ± 1.2
318.14 K, 45590 kPa	1377.4 ± 1.1
318.16 K, 30400 kPa	1308.7 ± 1.1
318.17 K, 111450 kPa	1615.3 ± 1.2
318.17 K, 121580 kPa	1646 ± 1.2
318.2 K, 100 kPa	1137.5 ± 1

CCCO [propan-1-ol] + CCCCCCC
[2]
Conditions	speed of sound [m/s]
293.12 K, 15200 kPa	1308.5 ± 1
293.16 K, 121580 kPa	1699.1 ± 1.2
293.17 K, 111450 kPa	1669.9 ± 1.2
293.18 K, 101320 kPa	1639.5 ± 1.2
293.19 K, 100 kPa	1223 ± 1
293.2 K, 75990 kPa	1557.2 ± 1.1
293.2 K, 91190 kPa	1607.6 ± 1.2
293.21 K, 45590 kPa	1444.2 ± 1.1
293.21 K, 60790 kPa	1502.8 ± 1.1
293.22 K, 30400 kPa	1379.9 ± 1.1
298.11 K, 15200 kPa	1292.9 ± 1
298.12 K, 100 kPa	1205.9 ± 1
298.14 K, 45590 kPa	1430.7 ± 1.1
298.14 K, 60790 kPa	1490 ± 1.1
298.14 K, 75990 kPa	1544.9 ± 1.1
298.14 K, 91190 kPa	1595.8 ± 1.2
298.14 K, 101320 kPa	1628 ± 1.2
298.14 K, 111450 kPa	1658.8 ± 1.2
298.14 K, 121580 kPa	1688.2 ± 1.2
298.15 K, 30400 kPa	1365.6 ± 1.1
303.12 K, 100 kPa	1188.7 ± 1
303.13 K, 45590 kPa	1417 ± 1.1
303.14 K, 15200 kPa	1277.3 ± 1
303.15 K, 75990 kPa	1532.5 ± 1.1
303.17 K, 91190 kPa	1584 ± 1.2
303.17 K, 101320 kPa	1616.5 ± 1.2
303.18 K, 121580 kPa	1677.4 ± 1.2
303.19 K, 111450 kPa	1647.5 ± 1.2
303.2 K, 60790 kPa	1477 ± 1.1
303.24 K, 30400 kPa	1350.9 ± 1.1
308.11 K, 121580 kPa	1667 ± 1.2
308.12 K, 75990 kPa	1520.4 ± 1.1
308.13 K, 30400 kPa	1336.8 ± 1.1
308.13 K, 45590 kPa	1403.7 ± 1.1
308.13 K, 60790 kPa	1464.5 ± 1.1
308.16 K, 111450 kPa	1636.7 ± 1.2
308.19 K, 101320 kPa	1605.1 ± 1.2
308.2 K, 100 kPa	1171.4 ± 1
308.2 K, 15200 kPa	1263.6 ± 1
308.2 K, 91190 kPa	1572.4 ± 1.2
313.15 K, 91190 kPa	1561.1 ± 1.2
313.15 K, 101320 kPa	1594.1 ± 1.2
313.16 K, 15200 kPa	1248.7 ± 1
313.16 K, 30400 kPa	1322.6 ± 1.1
313.16 K, 45590 kPa	1390.4 ± 1.1
313.16 K, 75990 kPa	1508.5 ± 1.1
313.17 K, 100 kPa	1154.5 ± 1
313.17 K, 60790 kPa	1451.8 ± 1.1
313.17 K, 121580 kPa	1656.2 ± 1.2
313.22 K, 111450 kPa	1625.8 ± 1.2
318.11 K, 101320 kPa	1583.3 ± 1.2
318.12 K, 60790 kPa	1439.6 ± 1.1
318.12 K, 75990 kPa	1496.8 ± 1.1
318.12 K, 91190 kPa	1549.9 ± 1.2
318.14 K, 45590 kPa	1377.4 ± 1.1
318.16 K, 30400 kPa	1308.7 ± 1.1
318.17 K, 111450 kPa	1615.3 ± 1.2
318.17 K, 121580 kPa	1646 ± 1.2
318.2 K, 100 kPa	1137.5 ± 1
